Laboratory results: patent US8273769B2, “Phenoxy acetic acid derivatives” (Merck Serono SA, priority 2009, dated 2012)

Legend:
[1] = target: T1, CRTH2 (Homo sapiens, UniProt Q9Y5Y4); assay: Radioligand binding Scintillation Proximity Assay ([3H]PGD2, hCRTH2-CHO cell membranes); parameters: host or cells: CHO cells; conditions: 1.5 nM [3H]PGD2, hCRTH2-CHO cell membranes, SPA
T1 sequence (Q9Y5Y4 1-395): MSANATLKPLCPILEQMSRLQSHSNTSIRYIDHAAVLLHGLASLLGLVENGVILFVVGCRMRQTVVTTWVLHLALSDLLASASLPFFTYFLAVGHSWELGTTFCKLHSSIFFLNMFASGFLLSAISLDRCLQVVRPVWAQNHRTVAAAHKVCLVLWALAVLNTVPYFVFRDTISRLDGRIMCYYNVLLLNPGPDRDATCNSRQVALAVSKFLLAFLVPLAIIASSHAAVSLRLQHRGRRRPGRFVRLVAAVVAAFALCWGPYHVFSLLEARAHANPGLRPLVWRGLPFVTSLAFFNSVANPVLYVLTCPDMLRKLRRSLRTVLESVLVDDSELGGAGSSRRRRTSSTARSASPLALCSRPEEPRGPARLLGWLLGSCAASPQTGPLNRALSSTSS
In short: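 SPA competition binding at room temperature, 90 min with agitation: 1.5 nM [3H]PGD2, 10-50 μg/ml hCRTH2-CHO membrane protein, WGA SPA beads, HEPES pH 7.4 with 10 mM MnCl2, 1% DMSO. Non-specific binding defined with 10 μM PGD2; scintillation counting.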

[2] = target: T1, CRTH2; assay: Cellular Dielectric Spectroscopy (CHO-CRTH2 cells); format: cell-based; parameters: expressed in transfected cells; host or cells: CHO-CRTH2 cells; conditions: antagonist mode, fixed concentration of PGD2 (EC80)
In short: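 Label-free cellular dielectric spectroscopy measured impedance changes (dZ) in CHO-CRTH2 cells. The cells were grown in HAM's F12 with 10% foetal calf serum and 400 μg/ml Geneticin, plated at 100000 cells/well in 96W electrode microplates, and kept 24 hours at 37° C. in 5% CO2. They were then washed twice with 135 μl of HBSS/10 mM HEPES pH 7.4/1% DMSO buffer. Signal was the max-min amplitude, with basal and maximum activity defined without and with PGD2 (EC80).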

Row | SMILES | IC50 [1] [nM] | IC50 [2] [nM]
1 | O=C(O)COc1ccc(Cl)cc1C#Cc1ccc2c(c1)S(=O)(=O)c1ccccc1-2 [Example 154, {4-chloro-2-[(5,5-dioxidodibenzo[b,d]thien-3-yl)ethynyl]phenoxy}acetic acid] | 14 | 
2 | CCCS(=O)(=O)c1cccc(C#Cc2cc(Cl)ccc2OCC(=O)O)c1 [Example 17, (4-chloro-2-{[3-(propylsulfonyl)phenyl]ethynyl}phenoxy)acetic acid] | 10 | 22
3 | CCCS(=O)(=O)c1ccc(C)c(C#Cc2cc(Cl)ccc2OCC(=O)O)c1 [Example 38, (4-chloro-2-{[2-methyl-5-(propylsulfonyl)phenyl]ethynyl}phenoxy)acetic acid] | 5 | 32
4 | CCCS(=O)(=O)c1ccc(Cl)c(C#Cc2cc(Cl)ccc2OCC(=O)O)c1 [Example 101, (4-chloro-2-{[2-chloro-5-(propylsulfonyl)phenyl]ethynyl}phenoxy)acetic acid] | 3 | 38
5 | CCCS(=O)(=O)c1ccc(F)c(C#Cc2cc(Cl)ccc2OCC(=O)O)c1 [Example 89, (4-chloro-2-{[2-fluoro-5-(propylsulfonyl)phenyl]ethynyl}phenoxy)acetic acid] | 6 | 29
6 | CN(C)S(=O)(=O)c1cncc(C#Cc2cc(Cl)ccc2OCC(=O)O)c1 [Example 35, [4-chloro-2-({5-[(dimethylamino)sulfonyl]pyridin-3-yl}ethynyl)phenoxy]acetic acid] | 55 | 23
7 | CC(C)S(=O)(=O)c1ccc(Cl)c(C#Cc2cc(Cl)ccc2OCC(=O)O)c1 [Example 103, (4-chloro-2-{[2-chloro-5-(isopropylsulfonyl)phenyl]ethynyl}phenoxy)acetic acid] | 4 | 44
8 | CN(C)S(=O)(=O)c1ccc(F)c(C#Cc2cc(Cl)ccc2OCC(=O)O)c1 [Example 107, [4-chloro-2-({5-[(dimethylamino)sulfonyl]-2-fluorophenyl}ethynyl)phenoxy]acetic acid] | 4 | 23
9 | CC(C)S(=O)(=O)c1ccc(F)c(C#Cc2cc(Cl)ccc2OCC(=O)O)c1 [Example 102, (4-chloro-2-{[2-fluoro-5-(isopropylsulfonyl)phenyl]ethynyl}phenoxy)acetic acid] | 5 | 16
